pEC50, pKi: −log10 of the molar value. Where two headings read alike, the source gives them in different places. Where only a bound is given, the exact number is not on record here.

The text below walks through data of US7582767B2 (Biovitrum AB (publ.), priority 2005, dated 2009).

In test [1] the target is 5-HT1b (Homo sapiens, UniProt P28222). In words: Selectivity binding 5-HT1b.
In test [2] the target is κ (KOP) (Homo sapiens, UniProt P41145). In words: κ (KOP) EC50 (method not described).
The target in test [3] is T1, 5-HT1a (Homo sapiens, UniProt P08908).
T1 sequence (P08908 1-422): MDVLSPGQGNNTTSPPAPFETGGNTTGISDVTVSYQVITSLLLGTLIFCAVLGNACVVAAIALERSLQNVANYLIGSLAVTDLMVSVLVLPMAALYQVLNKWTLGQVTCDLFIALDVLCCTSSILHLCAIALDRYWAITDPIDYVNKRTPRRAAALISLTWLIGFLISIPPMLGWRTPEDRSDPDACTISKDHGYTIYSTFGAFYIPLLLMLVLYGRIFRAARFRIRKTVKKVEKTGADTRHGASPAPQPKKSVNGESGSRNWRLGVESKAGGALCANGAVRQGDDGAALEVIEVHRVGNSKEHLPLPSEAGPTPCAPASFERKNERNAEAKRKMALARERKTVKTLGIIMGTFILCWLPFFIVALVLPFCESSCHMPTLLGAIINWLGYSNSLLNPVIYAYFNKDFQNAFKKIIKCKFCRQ
In words: Selectivity binding 5-HT1a.

In test [4] the target is T2, 5-HT2c (Homo sapiens, UniProt P28335).
T2 sequence (P28335 33-458): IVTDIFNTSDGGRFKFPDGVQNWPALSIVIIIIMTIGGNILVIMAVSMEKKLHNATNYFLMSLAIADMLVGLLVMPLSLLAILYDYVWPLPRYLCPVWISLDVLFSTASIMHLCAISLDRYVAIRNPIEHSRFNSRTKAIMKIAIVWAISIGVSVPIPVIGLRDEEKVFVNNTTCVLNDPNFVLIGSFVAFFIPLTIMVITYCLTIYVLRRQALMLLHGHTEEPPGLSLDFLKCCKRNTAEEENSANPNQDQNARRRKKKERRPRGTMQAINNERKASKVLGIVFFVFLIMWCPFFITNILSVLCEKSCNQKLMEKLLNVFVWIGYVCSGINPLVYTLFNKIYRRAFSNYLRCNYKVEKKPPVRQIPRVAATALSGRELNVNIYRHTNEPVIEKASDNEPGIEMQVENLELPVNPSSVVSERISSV
Description: Selectivity binding 5-HT2c.

The test system of test [5] is food intake of DIO rats. In words: Effect on food intake, 28 days oral treatment of DIO rats. It counts as in vivo, male Sprague-Dawley rats. The note with it: for food intake versus vehicle, Dunnets t-test: first seven days. The procedure: (c) Effect on Body Weight and on Food Intake
The corresponding solution was used as vehicle. The stability of the solutions were checked upon storage for 14 days. Solutions were formulated twice a week and stored in freezer. The solutions were analysed for the actual concentrations and found similar between the two occasions.
Hundred (100) male Sprague-Dawley rats were raised on high fat diet at Scanbur BK AB (Sollentuna, Sweden) which upon their arrival to the Biovitrum animal care facility weighed approximately 700 g (17 weeks old). The rats were conditioned and weighed for approximately three weeks after their arrival. The rats were singly stored in standard cages during constant room conditions (temp 22+/−1° C., humidity 40-60%, 12 h light/dark cycle, lights off at 10 am). The rats received the same high fat diet (45 kcal % fat, 4.7 kcal/g; D12451) as they received at Scanbur. The diets were purchased from Research Diets, Inc., New Jersey, USA, consisted of pellets and were stored under dry and cold conditions.
The high fat fed animals which gained the highest weight were selected. This population weighed 799±60 g. The selected forty-eight (48) rats were randomized and divided into […] treatment groups in order to obtain as homogeneous groups according to body weight as possible. Each treatment group consisted of 12 rats: Group 1—vehicle, Group 2—Example 1-5 mg/kg (11 μmol/kg), Group 3—Example 1-15 mg/kg (33 μmol/kg), Group 4—Example 1-30 mg/kg (66 μmol/kg). Further nine (9) rats were allocated for measurement of compound exposure and pharmacokinetics at each dose group in parallel for the seventh and the twentyninth days. The study was started by baseline measurements for five days in order to accustom the rats to the procedure and to the experimentalists. Test compound was administered orally once a day at 9-10 am in a volume of 2.5 ml/kg i.e.an average of 2 ml per (800 g) rat. Pellets and body were weighed each day in connection with the injections. Water bottles were weighed once a week. The weighings were done with a computer-assisted Mettler Toledo PR 5002 balance. All data were transferred into an Excel template.
The food and water intake, and body weight data are calculated in gram and % of basal and expressed as mean +/−SD and/or +/−SEM.
The data of body weight and food intake was statistically analysed by two-way univariate ANOVA with repeated measurements (treatment x time) followed by one-way ANOVA for comparison between treatment groups at selected time points. Clinical chemistry measurements were analysed by one-way ANOVA followed by Dunnetts t-test for test of significance of treatment groups versus vehicle control. A difference between two groups was considered significant if P<0.05. Statistical evaluation was performed using SPSS for Windows.

The target in test [6] is T3, 5-HT3 (Homo sapiens, UniProt P46098).
T3 construct: expressed in transfected cells; host or cells: HEK-293 cells
T3 sequence (P46098 24-478): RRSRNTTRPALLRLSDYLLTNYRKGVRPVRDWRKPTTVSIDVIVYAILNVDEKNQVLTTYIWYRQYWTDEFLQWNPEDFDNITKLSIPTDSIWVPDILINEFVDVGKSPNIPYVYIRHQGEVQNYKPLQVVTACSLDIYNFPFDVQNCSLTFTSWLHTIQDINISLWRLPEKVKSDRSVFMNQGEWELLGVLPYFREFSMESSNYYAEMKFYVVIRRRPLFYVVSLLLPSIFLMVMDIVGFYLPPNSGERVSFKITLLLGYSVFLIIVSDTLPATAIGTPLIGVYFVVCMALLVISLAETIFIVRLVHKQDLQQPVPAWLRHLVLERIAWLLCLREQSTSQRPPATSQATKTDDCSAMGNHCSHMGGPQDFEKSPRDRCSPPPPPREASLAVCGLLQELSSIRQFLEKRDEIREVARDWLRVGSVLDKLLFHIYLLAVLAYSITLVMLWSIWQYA
Description: 5-HT3 binding (human recombinant, HEK-293 cells).

Sequence of 5-HT1b (P28222 whole entry, species assumed): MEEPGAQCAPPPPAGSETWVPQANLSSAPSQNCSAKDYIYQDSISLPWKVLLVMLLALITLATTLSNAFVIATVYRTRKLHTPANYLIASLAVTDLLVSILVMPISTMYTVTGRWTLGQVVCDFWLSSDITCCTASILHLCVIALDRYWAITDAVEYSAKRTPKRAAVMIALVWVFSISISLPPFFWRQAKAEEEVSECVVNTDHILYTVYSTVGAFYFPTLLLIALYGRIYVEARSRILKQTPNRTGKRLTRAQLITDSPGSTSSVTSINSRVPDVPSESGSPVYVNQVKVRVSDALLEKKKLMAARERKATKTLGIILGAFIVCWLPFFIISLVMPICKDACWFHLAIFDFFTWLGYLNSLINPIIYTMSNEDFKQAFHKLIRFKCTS
Sequence of κ (KOP) (P41145 whole entry): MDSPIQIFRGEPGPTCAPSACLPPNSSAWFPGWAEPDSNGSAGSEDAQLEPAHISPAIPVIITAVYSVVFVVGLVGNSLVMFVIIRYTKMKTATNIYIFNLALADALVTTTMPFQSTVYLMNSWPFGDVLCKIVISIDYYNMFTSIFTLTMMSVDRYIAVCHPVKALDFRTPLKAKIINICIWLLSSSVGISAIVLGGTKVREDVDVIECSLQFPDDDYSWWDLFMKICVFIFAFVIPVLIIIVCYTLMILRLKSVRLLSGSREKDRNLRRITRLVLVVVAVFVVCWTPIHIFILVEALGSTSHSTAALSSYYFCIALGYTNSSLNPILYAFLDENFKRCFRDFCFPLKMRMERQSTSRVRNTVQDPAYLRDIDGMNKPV

The term pKi denotes the negative decadic logarithm of the Ki, by convention in mol/L. As a reminder, the pEC50 is the negative decadic logarithm of the EC50, by convention in mol/L. High values mean a low EC50, low ones a high EC50. Turning to `COc1ccc(C)cc1NS(=O)(=O)c1cc(OC2CCNCC2)c2occc2c1` [Example 1], the negative logarithm of the Ki (pKi) was 5.44 in test [1] (figure in parentheses after the bound, read-out: 5-HT1b Selectivity Binding (Ki), value in parentheses); less than 6.00 in test [1] (read-out: 5-HT1b Selectivity Binding (Ki)); 5.85 in test [3] (figure in parentheses after the bound, read-out: 5-HT1a Selectivity Binding (Ki), value in parentheses); less than 6.00 in test [3] (read-out: 5-HT1a Selectivity Binding (Ki)); 5.64 in test [4] (figure in parentheses after the bound, read-out: 5-HT2c Selectivity Binding (Ki), value in parentheses); less than 6.00 in test [4] (read-out: 5-HT2c Selectivity Binding (Ki)). For the same compound, the pKi in test [6] is 6.72. For the same compound, the pEC50 in test [2] was 5.42. The “food intake versus vehicle, Dunnets t-test” value in test [5] (15 mg/kg p.o.) and in test [5] (30 mg/kg p.o.) was “significantly different from vehicle” in each case. In test [5] (all dose groups, P<0.076), the “food intake, days 8 to 14 and rest of the treatment period” value is given as “remained decreased during the rest of the treatment period, although not statistically significant”. Also, the “food intake during the first seven days” value in test [5] (all dose groups, repeated ANOVA P<0.001) is recorded as “decreased food intake significantly”. The same compound yielded a minimum effective dose in test [5] (food intake, p.o.) of 15 mg/kg.
